Data from US20230381190A1, “Methods and Treatment for Complex Lymphatic Malformations” (priority 2022, published 2023).
Where “and” joins values, the source holds several entries; their conditions need not be identical. Identical values can stand only once. Like-named read-outs stand apart in the source and are kept apart here.

Legend:
[1] = Modeling and simulation of human PK for dose selection; conditions: total daily dose 1.0 mg, divided every 12 hours, 50th percentile
Description: The doses proposed for this study were selected after modeling and simulation of the human PK of CERC-006 using data reported by Mateo et al (Mateo J, Olmos D, Dumez H, et al. A first in man, dose-finding study of the mTORC1/mTORC2 inhibitor OSI-027 in patients with advanced solid malignancies. Br J Cancer. 2016114(8):889-896) and comparing the PK/PD response for sirolimus in patients with complicated vascular anomalies published by Adams et al (Adams et al, Pediatrics (2016)) and Mizuno et al (Mizuno T, Emoto C, Fukuda T, et al. Model-based precision dosing of sirolimus in pediatric patients with vascular anomalies. Eur J Pharm Sci. 2017; 109S:S124-S131). The goal was to estimate doses that would produce effective trough plasma concentrations of CERC-006 in relation to pharmacological target potency (mTOR complex inhibition) using the PK/PD response achieved by sirolimus in this patient population as a benchmark. […] The additional dose proposed, 2.0 mg/day, is necessary to ensure potential therapeutic benefit while preserving safety and providing a range of plasma concentrations to guide future PK/PD modeling efforts.

[2] = cited from earlier work
[3] = cited from earlier work; remark: listed apart in the source
[4] = linear extrapolation from simulated PK profile, listed as CERC-006
[5] = regardless of relationship, 123 subjects

COc1cccc2cc(-c3nc([C@H]4CC[C@H](C(=O)O)CC4)n4ncnc(N)c34)[nH]c12 [AVTX-006, trans-4-[4-Amino-5-(7-methoxyl-1H-indol-2-yl)-imidazo[5,1-f][1,2,4]triazine-7-yl]-cyclohexanecarboxylic acid]
Free trough concentration above the in vitro IC50 for mTOR complex inhibition [1]: approximately 2 fold
Free trough plasma concentration [1, 4]: ~4 ng/mL and ~10 nM
Total trough plasma concentration [1, 4]: approximately 27 ng/mL and ~66 nM
Estimated terminal half-life (t1/2) ([2]; 240 mg dose in S2 (weekly dose schedule)): approximately 14 hours
Dose proportionality of area under the curve (AUC) ([2]; S1 and S2, slope close to 1): dose proportional
Dose proportionality of increases in Cmax ([2]; S1 and S3): apparently proportional to dose
Subjects with TEAEs considered drug regimen-related ([3]; 92 of 123 subjects, by the investigator): 74.8%
Drug regimen related TEAE anorexia ([3]; 123 subjects): 21.1%
Drug regimen related TEAE fatigue ([3]; 123 subjects): 44.7%
Drug regimen related TEAE increased blood creatinine ([3]; 123 subjects): 26.0%
Drug regimen related TEAE nausea ([3]; 123 subjects): 40.7%
Drug regimen related TEAE vomiting ([3]; 123 subjects): 18.7%
Subjects with related SAEs ([3]; Fifteen subjects): 12.2%
Subjects with serious adverse events (SAEs) ([3]; Fifty of 123 subjects treated): 40.6%
Maximum tolerated dose (MTD) ([3]; S1: once daily for 3 consecutive days every 7 days): 120 mg
Deaths, subjects ([3]; S1): 48.2%
Maximum tolerated dose (MTD) ([3]; S2: once weekly, escalation stopped at 240 mg every week): not reached
Deaths, subjects ([3]; S2): 25.6%
Maximum tolerated dose (MTD) ([3]; S3: once daily dosing): 30 mg
Dose at which renal toxicity was dose limiting ([3]; S3: once daily): 40 mg
Deaths, subjects ([3]; S3): 14.3%
Deaths considered drug related ([3]; all schedules): None
Observed dose limiting toxicities (DLTs) ([3]; all schedules): fatigue, renal, and cardiac events
Related SAE anorexia ([3]; in vivo): 1 subject
Related SAE blood creatinine increased ([3]; in vivo): 2 subjects
Related SAE bone pain ([3]; in vivo): 1 subject
Related SAE cardiac failure congestive ([3]; in vivo): 1 subject
Related SAE cataract subcapsular ([3]; in vivo): 1 subject
Related SAE diarrhea ([3]; in vivo): 1 subject
Related SAE fatigue ([3]; in vivo): 3 subjects
Related SAE myocardial infarction ([3]; in vivo): 1 subject
Related SAE nausea ([3]; in vivo): 3 subjects
Related SAE pneumonia ([3]; in vivo): 1 subject
Related SAE renal failure ([3]; in vivo): 1 subject
Related SAE stress cardiomyopathy ([3]; in vivo): 1 subject
Related SAE supraventricular tachycardia ([3]; in vivo): 1 subject
Related SAE urticaria ([3]; in vivo): 1 subject
Related SAE vomiting ([3]; in vivo): 2 subjects
TEAE abdominal pain upper, subjects [3, 5]: 10.6%
TEAE abdominal pain, subjects [3, 5]: 17.1%
TEAE anemia, subjects [3, 5]: 13.8%
TEAE anorexia, subjects [3, 5]: 40.7%
TEAE back pain, subjects [3, 5]: 14.6%
TEAE blood creatinine increased, subjects [3, 5]: 28.5%
TEAE constipation, subjects [3, 5]: 25.2%
TEAE cough, subjects [3, 5]: 14.6%
TEAE diarrhea, subjects [3, 5]: 22.8%
TEAE dyspnea, subjects [3, 5]: 17.1%
TEAE fatigue, subjects [3, 5]: 65.0%
TEAE headache, subjects [3, 5]: 14.6%
TEAE hypokalemia, subjects [3, 5]: 12.2%
TEAE nausea, subjects [3, 5]: 60.2%
TEAE vomiting, subjects [3, 5]: 33.3%
TEAE weight decreased, subjects [3, 5]: 13.8%
